Assay results published in PMC5529566, “The cryo-EM structure of gastric H^+,K^+-ATPase with bound BYK99, a high-affinity member of K^+-competitive, imidazo[1,2-a]pyridine inhibitors” (Scientific Reports, 2017).

How the values were obtained:
H^+,K^+-ATPase F332I = H^+,K^+-ATPase F332I (Sus scrofa, UniProt P19156, F333I); assay: ATPase assay, F332I mutant
H^+,K^+-ATPase D136L = H^+,K^+-ATPase D136L (Sus scrofa, UniProt P19156, D137L); assay: ATPase assay, D136L mutant
H^+,K^+-ATPase D137N = H^+,K^+-ATPase D137N (Sus scrofa, UniProt P19156, D138N); assay: ATPase assay, D137N mutant
H^+,K^+-ATPase A335V = H^+,K^+-ATPase A335V (Sus scrofa, UniProt P19156, A336V); assay: ATPase assay, A335V mutant
H^+,K^+-ATPase D137I = H^+,K^+-ATPase D137I (Sus scrofa, UniProt P19156, D138I); assay: ATPase assay, D137I mutant
H^+,K^+-ATPase V331F = H^+,K^+-ATPase V331F (Sus scrofa, UniProt P19156, V332F); assay: ATPase assay, V331F mutant
H^+,K^+-ATPase M334F = H^+,K^+-ATPase M334F (Sus scrofa, UniProt P19156, M335F); assay: ATPase assay, M334F mutant
H^+,K^+-ATPase D137A = H^+,K^+-ATPase D137A (Sus scrofa, UniProt P19156, D138A); assay: ATPase assay, D137A mutant
H^+,K^+-ATPase A125F = H^+,K^+-ATPase A125F (Sus scrofa, UniProt P19156, A126F); assay: ATPase assay, A125F mutant
[1] = biological target: H^+,K^+-ATPase A335C/C813A (Sus scrofa, UniProt P19156, A336C/C814A); assay: ATPase assay, A335C/C813A mutant
H^+,K^+-ATPase A125S = H^+,K^+-ATPase A125S (Sus scrofa, UniProt P19156, A126S); assay: ATPase assay, A125S mutant
H^+,K^+-ATPase L141I = H^+,K^+-ATPase L141I (Sus scrofa, UniProt P19156, L142I); assay: ATPase assay, L141I mutant
H^+,K^+-ATPase [2] = tested on: H^+,K^+-ATPase; design: method as in doi:10.1016/j.tetlet.2006.02.156; details: cited from earlier work
H^+,K^+-ATPase V331A = H^+,K^+-ATPase V331A (Sus scrofa, UniProt P19156, V332A); assay: ATPase assay, V331A mutant
H^+,K^+-ATPase Y140I = H^+,K^+-ATPase Y140I (Sus scrofa, UniProt P19156, Y141I); assay: ATPase assay, Y140I mutant
H^+,K^+-ATPase N138F = H^+,K^+-ATPase N138F (Sus scrofa, UniProt P19156, N139F); assay: ATPase assay, N138F mutant
H^+,K^+-ATPase L796F = H^+,K^+-ATPase L796F (Sus scrofa, UniProt P19156, L797F); assay: ATPase assay, L796F mutant
H^+,K^+-ATPase L800F = H^+,K^+-ATPase L800F (Sus scrofa, UniProt P19156, L801F); assay: ATPase assay, L800F mutant
H^+,K^+-ATPase Y140F = H^+,K^+-ATPase Y140F (Sus scrofa, UniProt P19156, Y141F); assay: ATPase assay, Y140F mutant
H^+,K^+-ATPase [3] = biological target: H^+,K^+-ATPase (Sus scrofa, UniProt P19156); assay: Dose-dependent inhibition of H^+,K^+-ATPase activity in the presence of 10 mM KCl
Procedure: Reactions were initiated by incubating at 37 °C using a thermal cycler, and maintained for 1 to 5 h (depending on the activity). Reactions were terminated by withdrawing 40 μL from the 80 μL reactant, and mixing with 80 μL of stop solution comprising 6% ascorbic acid and 2% ammonium molybdate in 1 N HCl, followed by the addition of 120 μL of 2% sodium arsenate, 2% sodium citrate, and 2% acetic acid. The amount of released inorganic phosphate was determined colorimetrically[39] from absorbance at 850 nm by the microplate reader (TECAN).

H^+,K^+-ATPase D136F = H^+,K^+-ATPase D136F (Sus scrofa, UniProt P19156, D137F); assay: ATPase assay, D136F mutant
Sequence of H^+,K^+-ATPase D136F (P19156 whole entry D137F): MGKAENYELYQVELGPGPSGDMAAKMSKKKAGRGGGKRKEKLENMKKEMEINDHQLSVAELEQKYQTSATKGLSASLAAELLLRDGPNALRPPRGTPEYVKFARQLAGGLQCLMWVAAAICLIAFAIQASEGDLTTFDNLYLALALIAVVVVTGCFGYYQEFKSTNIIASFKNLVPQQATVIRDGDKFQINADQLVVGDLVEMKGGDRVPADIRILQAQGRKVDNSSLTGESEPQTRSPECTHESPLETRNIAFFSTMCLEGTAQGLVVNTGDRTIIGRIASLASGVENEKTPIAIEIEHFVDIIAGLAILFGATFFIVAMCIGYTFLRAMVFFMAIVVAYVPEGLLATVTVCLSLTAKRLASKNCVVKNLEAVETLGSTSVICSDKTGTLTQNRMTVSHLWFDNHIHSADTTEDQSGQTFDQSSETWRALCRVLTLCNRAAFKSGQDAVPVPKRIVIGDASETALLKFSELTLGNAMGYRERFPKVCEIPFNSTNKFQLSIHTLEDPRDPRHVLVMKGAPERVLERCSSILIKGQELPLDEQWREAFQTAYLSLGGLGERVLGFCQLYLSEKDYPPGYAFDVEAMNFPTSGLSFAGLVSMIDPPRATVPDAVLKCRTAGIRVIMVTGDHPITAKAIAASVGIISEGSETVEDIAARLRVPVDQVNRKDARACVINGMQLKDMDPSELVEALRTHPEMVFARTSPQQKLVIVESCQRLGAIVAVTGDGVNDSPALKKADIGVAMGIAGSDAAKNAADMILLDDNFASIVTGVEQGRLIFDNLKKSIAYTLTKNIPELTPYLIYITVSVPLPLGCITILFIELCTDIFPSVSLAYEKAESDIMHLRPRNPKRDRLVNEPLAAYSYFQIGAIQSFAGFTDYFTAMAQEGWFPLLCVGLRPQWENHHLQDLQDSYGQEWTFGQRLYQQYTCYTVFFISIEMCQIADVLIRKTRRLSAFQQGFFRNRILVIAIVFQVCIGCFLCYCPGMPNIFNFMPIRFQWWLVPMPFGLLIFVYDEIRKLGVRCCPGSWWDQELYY
Sequence of H^+,K^+-ATPase D136F (P18434 whole entry partner): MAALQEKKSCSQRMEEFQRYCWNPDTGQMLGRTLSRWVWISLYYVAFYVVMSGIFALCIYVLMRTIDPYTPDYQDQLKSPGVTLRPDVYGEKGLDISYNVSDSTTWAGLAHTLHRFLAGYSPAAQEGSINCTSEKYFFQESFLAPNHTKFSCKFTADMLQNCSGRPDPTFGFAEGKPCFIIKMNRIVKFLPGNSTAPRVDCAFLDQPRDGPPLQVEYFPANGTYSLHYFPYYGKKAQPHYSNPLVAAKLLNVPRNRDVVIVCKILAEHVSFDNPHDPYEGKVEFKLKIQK

Sequence of H^+,K^+-ATPase D137N (P19156 whole entry D138N): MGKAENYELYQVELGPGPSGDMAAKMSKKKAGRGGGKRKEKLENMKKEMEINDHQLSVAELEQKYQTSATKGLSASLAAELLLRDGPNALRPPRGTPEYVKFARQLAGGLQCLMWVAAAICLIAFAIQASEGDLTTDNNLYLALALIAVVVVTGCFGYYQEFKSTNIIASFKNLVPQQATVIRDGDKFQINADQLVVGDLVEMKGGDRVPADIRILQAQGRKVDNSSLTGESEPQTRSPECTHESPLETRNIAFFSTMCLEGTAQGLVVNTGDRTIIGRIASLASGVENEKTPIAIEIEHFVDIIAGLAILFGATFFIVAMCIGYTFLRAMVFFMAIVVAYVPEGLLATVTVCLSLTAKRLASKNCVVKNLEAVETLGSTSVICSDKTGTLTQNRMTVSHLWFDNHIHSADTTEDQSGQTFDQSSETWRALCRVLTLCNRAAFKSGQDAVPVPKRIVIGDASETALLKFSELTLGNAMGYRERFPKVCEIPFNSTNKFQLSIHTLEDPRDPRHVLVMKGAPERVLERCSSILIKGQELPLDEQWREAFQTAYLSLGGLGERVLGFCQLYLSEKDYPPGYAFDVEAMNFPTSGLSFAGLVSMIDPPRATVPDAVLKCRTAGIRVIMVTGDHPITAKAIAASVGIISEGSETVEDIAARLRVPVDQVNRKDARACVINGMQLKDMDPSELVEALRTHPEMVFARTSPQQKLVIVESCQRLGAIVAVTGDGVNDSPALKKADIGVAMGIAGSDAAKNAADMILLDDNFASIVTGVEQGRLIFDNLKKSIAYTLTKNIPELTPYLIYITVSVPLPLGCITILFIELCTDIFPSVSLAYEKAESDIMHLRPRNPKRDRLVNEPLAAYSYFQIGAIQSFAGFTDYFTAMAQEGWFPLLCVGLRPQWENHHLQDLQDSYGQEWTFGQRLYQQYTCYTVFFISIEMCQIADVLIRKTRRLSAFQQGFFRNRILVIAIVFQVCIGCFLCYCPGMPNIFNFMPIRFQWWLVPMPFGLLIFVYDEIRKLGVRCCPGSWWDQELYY
Sequence of H^+,K^+-ATPase D137N (P18434 whole entry partner): as the sequence (P18434 whole entry partner) above
Sequence of H^+,K^+-ATPase Y140F (P19156 whole entry Y141F): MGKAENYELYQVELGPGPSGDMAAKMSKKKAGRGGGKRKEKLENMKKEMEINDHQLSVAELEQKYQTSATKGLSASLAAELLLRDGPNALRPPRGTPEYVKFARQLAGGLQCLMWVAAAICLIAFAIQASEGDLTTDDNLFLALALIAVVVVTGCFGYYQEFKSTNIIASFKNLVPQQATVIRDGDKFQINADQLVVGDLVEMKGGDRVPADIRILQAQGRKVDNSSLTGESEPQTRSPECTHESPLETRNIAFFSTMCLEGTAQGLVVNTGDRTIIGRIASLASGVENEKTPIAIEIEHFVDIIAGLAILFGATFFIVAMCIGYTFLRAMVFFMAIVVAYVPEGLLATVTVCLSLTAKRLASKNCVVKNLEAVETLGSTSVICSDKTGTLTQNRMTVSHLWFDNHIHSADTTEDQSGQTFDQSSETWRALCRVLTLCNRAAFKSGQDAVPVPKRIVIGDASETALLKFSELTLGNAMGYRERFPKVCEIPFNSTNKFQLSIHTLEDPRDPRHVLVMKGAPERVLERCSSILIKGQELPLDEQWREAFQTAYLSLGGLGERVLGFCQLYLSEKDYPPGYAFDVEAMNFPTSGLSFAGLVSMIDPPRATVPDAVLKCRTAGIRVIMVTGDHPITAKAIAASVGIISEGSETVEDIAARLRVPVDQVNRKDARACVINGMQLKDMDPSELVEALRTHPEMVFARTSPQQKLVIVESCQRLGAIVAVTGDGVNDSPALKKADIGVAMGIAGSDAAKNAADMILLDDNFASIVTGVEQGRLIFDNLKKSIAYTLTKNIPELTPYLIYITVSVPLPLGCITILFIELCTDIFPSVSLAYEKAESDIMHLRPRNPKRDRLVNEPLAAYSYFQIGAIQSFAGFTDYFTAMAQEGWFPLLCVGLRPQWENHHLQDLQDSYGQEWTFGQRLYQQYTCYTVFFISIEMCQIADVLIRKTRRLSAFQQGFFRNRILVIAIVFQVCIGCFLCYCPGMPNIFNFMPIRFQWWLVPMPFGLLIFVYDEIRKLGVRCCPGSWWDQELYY
Sequence of H^+,K^+-ATPase Y140F (P18434 whole entry partner): as the sequence (P18434 whole entry partner) above
Sequence of H^+,K^+-ATPase L796F (P19156 whole entry L797F): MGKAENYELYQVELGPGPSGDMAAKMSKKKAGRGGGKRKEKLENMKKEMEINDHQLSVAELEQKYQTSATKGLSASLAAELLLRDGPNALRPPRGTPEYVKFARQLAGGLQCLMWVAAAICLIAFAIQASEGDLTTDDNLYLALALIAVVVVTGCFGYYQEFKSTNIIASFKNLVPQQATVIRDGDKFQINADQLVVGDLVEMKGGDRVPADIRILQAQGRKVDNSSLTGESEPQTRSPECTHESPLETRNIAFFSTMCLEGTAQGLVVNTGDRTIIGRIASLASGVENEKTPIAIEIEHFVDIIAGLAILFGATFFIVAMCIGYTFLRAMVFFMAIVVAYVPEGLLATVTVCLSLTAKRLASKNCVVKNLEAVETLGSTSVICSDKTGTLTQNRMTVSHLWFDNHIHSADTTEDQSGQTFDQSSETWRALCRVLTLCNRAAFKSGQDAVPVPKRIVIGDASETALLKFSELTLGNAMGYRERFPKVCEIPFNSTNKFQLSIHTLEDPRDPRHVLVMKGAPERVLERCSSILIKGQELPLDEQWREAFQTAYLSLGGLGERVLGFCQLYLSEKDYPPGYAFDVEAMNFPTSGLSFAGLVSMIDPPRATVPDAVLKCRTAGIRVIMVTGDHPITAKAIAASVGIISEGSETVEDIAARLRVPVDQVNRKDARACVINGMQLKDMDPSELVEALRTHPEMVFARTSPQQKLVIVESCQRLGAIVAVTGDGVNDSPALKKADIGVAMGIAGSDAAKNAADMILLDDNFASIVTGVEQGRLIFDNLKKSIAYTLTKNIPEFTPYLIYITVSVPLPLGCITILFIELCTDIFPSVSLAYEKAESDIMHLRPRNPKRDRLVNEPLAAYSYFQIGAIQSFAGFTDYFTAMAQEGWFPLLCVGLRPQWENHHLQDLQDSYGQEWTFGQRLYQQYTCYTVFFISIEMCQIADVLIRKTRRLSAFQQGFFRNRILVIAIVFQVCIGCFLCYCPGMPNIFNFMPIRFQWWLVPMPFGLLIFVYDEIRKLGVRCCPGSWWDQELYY
Sequence of H^+,K^+-ATPase L796F (P18434 whole entry partner): as the sequence (P18434 whole entry partner) above

Cc1nc2c3c(ccn2c1C)[C@@H](O)[C@H](O)[C@@H](c1ccccc1)N3 [BYK99]
Ki (H^+,K^+-ATPase F332I): 8.9 ± 0.7 nM
-fold increase in K i compared with wild-type (H^+,K^+-ATPase F332I; F332I): 1.5 fold
Ki (H^+,K^+-ATPase D136L): 5.3 ± 0.5 nM
-fold increase in K i compared with wild-type (H^+,K^+-ATPase D136L; D136L): 0.9 fold
Ki (H^+,K^+-ATPase D137N): 450 ± 100 nM
-fold increase in K i compared with wild-type (H^+,K^+-ATPase D137N; D137N): 78 fold
fold lower affinity than WT (H^+,K^+-ATPase D137N; D137N vs WT): more than 60 fold
Ki (H^+,K^+-ATPase A335V): > 1000 nM
-fold increase in K i compared with wild-type (H^+,K^+-ATPase A335V; A335V): > 170 fold
Ki (H^+,K^+-ATPase D137I): 62 ± 15 nM
-fold increase in K i compared with wild-type (H^+,K^+-ATPase D137I; D137I): 11 fold
Ki (H^+,K^+-ATPase V331F): 15 ± 2 nM
-fold increase in K i compared with wild-type (H^+,K^+-ATPase V331F; V331F): 2.3 fold
Ki (H^+,K^+-ATPase M334F): 16 ± 4 nM
-fold increase in K i compared with wild-type (H^+,K^+-ATPase M334F; M334F): 2.8 fold
Ki (H^+,K^+-ATPase D137A): 81 ± 13 nM
-fold increase in K i compared with wild-type (H^+,K^+-ATPase D137A; D137A): 14 fold
Ki (H^+,K^+-ATPase A125F): 12 ± 1 nM
-fold increase in K i compared with wild-type (H^+,K^+-ATPase A125F; A125F): 2.1 fold
Ki [1]: > 1000 nM
-fold increase in K i compared with wild-type ([1]; A335C/C813A): > 170 fold
Ki (H^+,K^+-ATPase A125S): 27 ± 2 nM
-fold increase in K i compared with wild-type (H^+,K^+-ATPase A125S; A125S): 4.6 fold
Ki (H^+,K^+-ATPase L141I): 8.4 ± 1.5 nM
-fold increase in K i compared with wild-type (H^+,K^+-ATPase L141I; L141I): 1.4 fold
fold higher affinity than SCH28080 (H^+,K^+-ATPase [2]): more than 20 fold
Ki (H^+,K^+-ATPase V331A): 47 ± 3 nM
-fold increase in K i compared with wild-type (H^+,K^+-ATPase V331A; V331A): 8.1 fold
Ki (H^+,K^+-ATPase Y140I): 4.3 ± 0.5 nM
-fold increase in K i compared with wild-type (H^+,K^+-ATPase Y140I; Y140I): 0.7 fold
Ki (H^+,K^+-ATPase N138F): 7700 ± 1200 nM
-fold increase in K i compared with wild-type (H^+,K^+-ATPase N138F; N138F): 1300 fold
Ki (H^+,K^+-ATPase L796F): 106 ± 10 nM
-fold increase in K i compared with wild-type (H^+,K^+-ATPase L796F; L796F): 18 fold
Ki (H^+,K^+-ATPase L800F): 59 ± 5 nM
-fold increase in K i compared with wild-type (H^+,K^+-ATPase L800F; L800F): 10 fold
Ki (H^+,K^+-ATPase Y140F): 35 ± 6 nM
-fold increase in K i compared with wild-type (H^+,K^+-ATPase Y140F; Y140F): 6.0 fold
IC50 (H^+,K^+-ATPase [3]): 77 nM
Ki (H^+,K^+-ATPase D136F): 5.9 ± 0.7 nM
-fold increase in K i compared with wild-type (H^+,K^+-ATPase D136F; D136F): 1.0 fold
